Measured values as given in patent publication US20100173937A1, “USE OF TETRAKIS-QUATERNARY AMMONIUM SALTS AS PAIN MODULATING AGENTS” (University of Kentucky Research Foundation, priority 2008, published 2010).

Experiments:
[1] = test system: mechanical hyperalgesia in CCI rats; assay: rat chronic constriction nerve injury (CCI) model of neuropathic pain, paw pressure test; assay type: in vivo; conditions: intraperitoneal, 3.6-3600 μg/kg, 15-120 minutes after injection, FIGS. 3 and 4
Experimental: A rat model of neuropathic pain (the chronic constriction nerve injury model; CCI) was used. Unilateral peripheral mononeuropathy was produced on the left hind limb according to the method described by Bennett and Xie (1988). Under pentobarbital anesthesia (40 mg/kg, IP) ligation of the siatic nerve and sham surgery were performed in each rat on the left and right hind paws, respectively. Proximal to the sciatice trifurcation, the nerve (about 7 mm) was freed from adhering tissue and four loose ligatures were tied around the nerve (1 mm apart) using 4.0 chromic catgut, barely constricting the diameter of the nerve. In sham surgery, the right sciatic nerve was exposed using the same procedure, but the nerve was not ligated. The incision was closed in layers with silk thread 3.0. […] No severe motor impairment was observed.
The presence of a decreased threshold to mechanical noxious stimuli (mechanical hyperalgesia) was evaluated by the Randal and Selitto (1957) method (paw pressure test) in CCI rats. The hind paw was placed between a flat surface and a blunt pointer in the Basile Analgesimeter (UGO Basile, Italy) and increasing pressure (32 g/s) was applied to the dorsal side of the paw. Vocalization was used as the end point (vocalization threshold, VT, g). […] Responses were assessed prior to (baseline, taken twice) and at 15, 30, 45, 60 and 120 minutes after injection. […]

[2] = test system: formalin-induced flinching; assay: rat model of tonic inflammatory pain (the formalin test); assay type: in vivo; conditions: intraperitoneal, 3.6-3600 μg/kg, 15 minutes prior to formalin, phase 1 and 2, FIGS. 1 and 2
Experimental: A rat model of tonic inflammatory pain (the formalin test) was used in this study (Wheeler-Aceto and Cowan, 1991). Fifty μl of formalin (5%) was injected subcutaneously (SC) into the dorsal surface of the left hind paw. This procedure typically produces a biphasic behavioral response consisting of flinching, lifting and licking. The first phase (0-10 minutes) results from direct stimulation of nociceptors (nociceptive pain) whereas the second phase (20-60 minutes) is thought to involve central sensitization. Rats (3/dose) were pretreated 15 minutes prior to formalin (SC) injection with ZZ-204G (3.6-3600 μg/kg) administered by the IP route. ZZ-204G is as below:
Saline served as control. Incidences of formalin-induced flinching were counted continuously in 5 minute intervals for 60 minutes. Each rat received only one treatment.

Question: `C(#Cc1cc(C#CCCC[n+]2cccc(-c3ccccc3)c2)c(C#CCCC[n+]2cccc(-c3ccccc3)c2)cc1C#CCCC[n+]1cccc(-c2ccccc2)c1)CCC[n+]1cccc(-c2ccccc2)c1.[Br-].[Br-].[Br-].[Br-]` [ZZ-204G] was tested. Which “antihyperalgesic effect in the rodent chronic constriction nerve injury model (vocalization threshold, paw pressure test)” value [1] did it give?
Answer: antihyperalgesic effect

Question: And the “analgesic effect in the rodent formalin tonic inflammatory pain model (formalin-induced flinching)” value [2]?
Answer: analgesic effect
